Where two headings read alike, the source gives them in different places. Where a SMILES comes first, the peptide text is derived from it.
Columns and labels:
[1] = tested on: SMAD7, SMAD family member 7; details: cited from earlier work
[2] = tested on: BMP2, bone morphogenetic protein 2; details: cited from earlier work
ASPN, Asporin = details: cited from earlier work
[3] = target: PLAU, plasminogen activator, urokinase (Homo sapiens, UniProt P00749); details: cited from earlier work
[4] = tested on: SMAD3, SMAD family member 3; details: cited from earlier work
[5] = tested on: TGFBR2, transforming growth factor, β receptor II (70/80 kDa); details: cited from earlier work
[6] = tested on: TIMP1, metallopeptidase inhibitor 1; details: cited from earlier work
[7] = target: T1, PLOD2, procollagen-lysine, 2-oxoglutarate 5-dioxygenase 2 (Homo sapiens, UniProt O00469); details: cited from earlier work
T1 sequence (O00469 26-737): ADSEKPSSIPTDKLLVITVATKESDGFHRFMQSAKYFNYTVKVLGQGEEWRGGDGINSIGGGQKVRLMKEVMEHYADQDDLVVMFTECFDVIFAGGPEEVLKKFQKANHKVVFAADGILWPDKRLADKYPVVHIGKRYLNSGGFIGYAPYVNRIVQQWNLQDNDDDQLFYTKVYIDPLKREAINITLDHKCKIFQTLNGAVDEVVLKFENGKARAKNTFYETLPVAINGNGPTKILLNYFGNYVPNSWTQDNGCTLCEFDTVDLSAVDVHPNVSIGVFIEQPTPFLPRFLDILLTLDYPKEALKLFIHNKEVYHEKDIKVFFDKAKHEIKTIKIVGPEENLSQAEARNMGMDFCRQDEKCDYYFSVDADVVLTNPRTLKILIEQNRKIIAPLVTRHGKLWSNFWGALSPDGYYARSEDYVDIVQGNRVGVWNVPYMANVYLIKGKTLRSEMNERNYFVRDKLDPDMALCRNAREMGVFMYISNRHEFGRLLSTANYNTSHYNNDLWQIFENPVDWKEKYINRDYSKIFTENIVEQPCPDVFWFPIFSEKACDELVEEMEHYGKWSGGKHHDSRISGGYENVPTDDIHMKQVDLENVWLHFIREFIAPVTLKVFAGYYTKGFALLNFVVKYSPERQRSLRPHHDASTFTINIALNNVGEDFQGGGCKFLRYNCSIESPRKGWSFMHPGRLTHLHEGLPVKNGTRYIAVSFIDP

[8] = target: T2, LYZ, lysozyme (renal amyloidosis) (Homo sapiens, UniProt P61626); details: cited from earlier work
T2 sequence (P61626 19-148): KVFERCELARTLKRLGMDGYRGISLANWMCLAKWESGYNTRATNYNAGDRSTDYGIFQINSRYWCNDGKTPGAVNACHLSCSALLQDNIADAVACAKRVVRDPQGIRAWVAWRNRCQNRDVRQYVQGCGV

[9] = tested on: reconstructed pigmented skin (RPS); assay: Stimulation of pigmentation of reconstructed pigmented skin by treatment with TGF-beta; assay type: cell-based; details: 200 pg/mL TGF-β1 on equivalent dermis for 3 days, compared with control
Method: FIG. 1: This figure illustrates the Reconstructed Pigmented Skin (RPS) treatment protocol using TGF-β. In the diagram, T means “treatment with TGF-β”, in a concentration of 200 pg/mL, with 4 mM of HCl and 1 mg/mL of BSA as the vehicle. The medium was MEM 3F′ with 2% FBS. The equivalent derma were treated for 3 consecutive days. On D0i, the equivalent dermis was seeded with keratinocytes and melanocytes (K+M on the graph) and kept immersed for 7 days. The culture was then emersed for 2 weeks;
The treatment protocol for reconstructed pigmented skin (RPS) with TGF-β is illustrated in FIG. 1. It was as follows:
Equivalent dermis (lattices) containing live fibroblasts in a collagen matrix were attached to the bottom of a Petri dish (D-4) and treated with TGF-β1 (T on FIG. 1) in a concentration of 200 pg/mL (vehicle: 4 mM of HCl and 1 mg/mL of BSA; medium: MEM 3F′ with 2% FBS), for 3 days (D-3; D-2 and D-1 in FIG. 1). Next, the pigmented epidermis was reconstructed on the equivalent dermis by seeding keratinocytes and melanocytes (D0). The culture was kept immersed for 1 week and emersed for 2 weeks (FIG. 1).
Samples were removed to analyse the pigmentation: • integration and morphology of melanocytes were observed after Dopa reaction on detached epidermis; • colorimetric luminance measurement provided information regarding the degree of clarity of the samples (the lower the L*, the darker the samples); • the presence of melanin was observed after Fontana Masson staining skin sections; and • the quantity of melanin present in the epidermis was measured by image analysis.

MATN2, matrilin 2 = details: cited from earlier work

O=CC(=O)C[C@H](O)[C@H](O)CO [3-deoxyglucosone]
Sense of modulation: SMAD7 expression [1]: Increases

Cc1cc(SCc2sc(-c3ccc(C(F)(F)F)c(F)c3)nc2C)ccc1OCC(=O)O [GW0742]
Sense of modulation: BMP2 expression [2]: Reduces exp. | Sense of modulation: BMP2 expression ([2]; listed as GW-0742): reduces

N#Cc1ccc(C(c2ccc(C#N)cc2)n2cncn2)cc1 [Letrozole]
Sense of modulation: ASPN expression (ASPN, Asporin): Increases

CC(=O)N[C@@H](CO)C(=O)N[C@@H](CC(=O)O)C(=O)N[C@@H](CCCCN)C(=O)N1CCC[C@H]1C(=O)O [N-acetyl-seryl-aspartyl-lysyl-proline] (Ac-SDKP-OH)
Sense of modulation: SMAD7 expression [1]: Increases

CC(C)=CCC[C@](C)(O[C@@H]1O[C@H](CO)[C@@H](O)[C@H](O)[C@H]1O)[C@H]1CC[C@]2(C)[C@@H]1[C@H](O)C[C@@H]1[C@@]3(C)CC[C@H](O)C(C)(C)[C@@H]3[C@@H](O[C@@H]3O[C@H](CO)[C@@H](O)[C@H](O)[C@H]3O[C@@H]3OC[C@@H](O)[C@H](O)[C@H]3O)C[C@]12C [Notoginsenoside R1]
Sense of modulation: PLAU expression [3]: Increases

O=C1CCC[C@@H]2[C@H]3CCC[N+]4([O-])CCC[C@@H](CN12)[C@@H]34 (some centres unmarked) [Oxymatrine]
modulation of SMAD3 ('reduces SMAD3', level not given) [4]: reduces | Sense of modulation: SMAD7 expression [1]: Increases

N=C(N)c1ccc(N)cc1 [P-aminobenzamidine]
Sense of modulation: PLAU activity [3]: Reduces activity | Sense of modulation: PLAU activity ([3]; listed as p-aminobenzamidine): reduces

NC(=O)c1ccc(-c2nc(-c3ccc4c(c3)OCO4)c(-c3ccccn3)[nH]2)cc1 [SB-431542]
Sense of modulation: SMAD3 expression [4]: Reduces | modulation of SMAD3 ('reduces SMAD3', level not given) [4]: reduces

O=C(/C=C/c1ccc(O)c2c1[C@H](C(=O)O[C@H](Cc1ccc(O)c(O)c1)C(=O)O)[C@@H](c1ccc(O)c(O)c1)O2)O[C@H](Cc1ccc(O)c(O)c1)C(=O)O [Salvianolic Acid B (Sal B), Salvianolic Acid B]
Sense of modulation: SMAD3 expression [4]: Reduces | modulation of SMAD3 ('reduces SMAD3', level not given) [4]: reduces | Sense of modulation: TGFBR2 expression [5]: reduces | Sense of modulation: TGFBR2 expression ([5]; listed as Salvianolic acid B (SA-B)): Reduces

O=C([O-])Cc1ccccc1.[Na+] [Sodium phenylacetate (NaPA), Sodium phenylacetate]
Sense of modulation: PLAU expression [3]: Reduces | Sense of modulation: PLAU expression ([3]; listed as NaPA): reduces

COC(=O)[C@@H](c1ccccc1Cl)N1CCc2sccc2C1 [Thienopyridine SR 25989]
Sense of modulation: PLAU expression [3]: Increases

CCCCC(=O)N(Cc1ccc(-c2ccccc2-c2nnn[nH]2)cc1)[C@H](C(=O)O)C(C)C [Valsartan]
Sense of modulation: TIMP1 expression [6]: Reduces | Sense of modulation: TIMP1 expression ([6]; listed as valsartan): reduces

CC(C)(C#N)c1cc(Cn2cncn2)cc(C(C)(C)C#N)c1 [anastrozole]
Sense of modulation: ASPN expression (ASPN, Asporin): Increases

N#CCCN [beta-aminopropionitrile (bAPN), beta-aminopropionitrile]
Sense of modulation: PLOD2 expression [7]: Reduces

PACAP38: form of pituitary adenylate cyclase-activating polypeptide listed beneath PACAP
Sense of modulation: LYZ expression [8]: Increases

TGF-β1: Transforming growth factor beta 1 used to treat equivalent dermis at 200 pg/mL
integration and morphology of melanocytes (Dopa reaction on detached epidermis) [9]: still present in the epidermis and retain the correct dendritic morphology | melanin content (Fontana Masson stained sections, quantification by image analysis) [9]: visibly increased | melanin deposits in the epidermis [9]: higher | luminance of the samples (L*) ([9]; lower L* = darker): reduced

Vitamin K2 menaquinone
Sense of modulation: MATN2 expression (MATN2, matrilin 2): Increases
